One assay addresses T1, human TLR7 (Homo sapiens, UniProt Q9NYK1).
T1 sequence (Q9NYK1 27-1049): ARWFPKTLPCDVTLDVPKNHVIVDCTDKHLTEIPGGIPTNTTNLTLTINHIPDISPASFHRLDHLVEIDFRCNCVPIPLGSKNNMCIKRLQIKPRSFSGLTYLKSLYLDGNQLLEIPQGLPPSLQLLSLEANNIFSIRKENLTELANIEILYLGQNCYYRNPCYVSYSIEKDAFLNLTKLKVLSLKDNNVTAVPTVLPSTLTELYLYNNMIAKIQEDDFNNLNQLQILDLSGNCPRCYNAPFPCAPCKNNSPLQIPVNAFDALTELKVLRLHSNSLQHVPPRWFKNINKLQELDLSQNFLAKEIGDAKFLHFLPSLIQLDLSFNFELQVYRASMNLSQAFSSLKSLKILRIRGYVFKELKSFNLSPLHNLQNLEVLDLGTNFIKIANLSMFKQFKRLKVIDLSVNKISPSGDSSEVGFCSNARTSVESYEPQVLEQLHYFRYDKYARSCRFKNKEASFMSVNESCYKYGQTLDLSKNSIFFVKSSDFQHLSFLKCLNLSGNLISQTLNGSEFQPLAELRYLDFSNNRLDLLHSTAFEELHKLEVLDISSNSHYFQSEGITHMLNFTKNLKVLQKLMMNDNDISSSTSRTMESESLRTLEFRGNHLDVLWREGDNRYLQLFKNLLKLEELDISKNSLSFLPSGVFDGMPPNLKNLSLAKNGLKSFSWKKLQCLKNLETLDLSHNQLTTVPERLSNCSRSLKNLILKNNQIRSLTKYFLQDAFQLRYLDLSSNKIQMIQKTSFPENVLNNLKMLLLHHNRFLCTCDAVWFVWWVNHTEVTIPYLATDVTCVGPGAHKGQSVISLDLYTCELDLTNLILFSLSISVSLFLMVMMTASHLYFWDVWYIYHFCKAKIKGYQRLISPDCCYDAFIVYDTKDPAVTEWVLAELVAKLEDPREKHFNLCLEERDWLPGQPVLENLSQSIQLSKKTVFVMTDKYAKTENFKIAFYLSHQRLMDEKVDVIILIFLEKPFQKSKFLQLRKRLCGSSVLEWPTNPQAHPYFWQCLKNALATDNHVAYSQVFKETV
The assay is described as follows: HEK-Blue hTLR7 SEAP reporter gene inhibition assay. The class given is cell-based. The gist of the method: (§1)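 Cells seeded (TLR7 line 80,000, TLR8 line 60,000 per well), compound added at 0.001–36 µM final for 15 min, then agonist at 10 µM final (Gardiquimod for TLR7) for 20 h. SEAP measured with Quanti-Blue; IC50 fitted.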

For the next assay, the target named is T2, human TLR8 (Homo sapiens, UniProt Q9NR97).
T2 construct: expressed in transfected cells
T2 sequence (Q9NR97 27-1041): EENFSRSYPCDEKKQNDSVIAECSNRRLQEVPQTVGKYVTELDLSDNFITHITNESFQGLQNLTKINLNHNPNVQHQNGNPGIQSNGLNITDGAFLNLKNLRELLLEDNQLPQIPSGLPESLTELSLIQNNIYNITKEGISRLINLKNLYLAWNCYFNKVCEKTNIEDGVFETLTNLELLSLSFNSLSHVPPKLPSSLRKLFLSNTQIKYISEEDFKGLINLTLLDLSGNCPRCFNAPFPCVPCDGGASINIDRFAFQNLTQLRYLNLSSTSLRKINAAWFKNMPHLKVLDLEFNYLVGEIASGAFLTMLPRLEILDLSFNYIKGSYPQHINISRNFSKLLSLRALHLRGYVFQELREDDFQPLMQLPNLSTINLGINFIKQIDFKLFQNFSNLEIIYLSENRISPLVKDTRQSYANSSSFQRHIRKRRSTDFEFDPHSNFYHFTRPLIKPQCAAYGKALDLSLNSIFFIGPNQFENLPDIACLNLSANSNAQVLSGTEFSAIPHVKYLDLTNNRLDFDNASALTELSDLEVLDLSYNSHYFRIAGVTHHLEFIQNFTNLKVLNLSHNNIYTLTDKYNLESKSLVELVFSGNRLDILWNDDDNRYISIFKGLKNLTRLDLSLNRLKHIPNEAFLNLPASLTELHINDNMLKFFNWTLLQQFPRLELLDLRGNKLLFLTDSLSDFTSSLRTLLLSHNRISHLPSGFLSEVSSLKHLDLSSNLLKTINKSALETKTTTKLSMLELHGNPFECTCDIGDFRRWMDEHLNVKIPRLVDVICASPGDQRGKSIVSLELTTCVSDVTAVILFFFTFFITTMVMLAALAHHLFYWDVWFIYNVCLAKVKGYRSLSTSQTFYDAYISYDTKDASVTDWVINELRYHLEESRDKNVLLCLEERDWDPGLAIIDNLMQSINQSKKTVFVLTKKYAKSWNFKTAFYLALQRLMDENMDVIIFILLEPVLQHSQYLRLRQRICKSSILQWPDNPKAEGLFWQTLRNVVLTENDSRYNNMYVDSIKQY
The assay is described as follows: HEK-Blue hTLR8 SEAP reporter gene inhibition assay. The class given is cell-based. The gist of the method: as §1

The mark [1] stands for this setting: hTLR7 HEK-Blue cells, TLR7 ligand Gardiquimod 10 µM, 20 hours, SEAP by Quanti-blue, class symbols, read-out: HEK-Blue hTLR7 IC50.
Setting [2] is: hTLR8 HEK-Blue cells, TLR8 ligand 10 µM, 20 hours, SEAP by Quanti-blue, class symbols, read-out: HEK-Blue hTLR8 IC50.

15 molecules from patent publication EP4644396A1 (Visionpharma (Nantong) Co., Ltd, priority 2022, dated 2024) can be followed below.

Where two headings read alike, the source gives them in different places.

The term IC50 denotes the concentration that inhibits the measured activity by half. `COC[C@@H]1Cc2c(nn3c2CN(c2ccc(C#N)n4ncc(F)c24)C[C@H]3C)CN1` [Example I-85, 3-Fluoro-4-((4R,9S)-9-(methoxymethyl)-4-methyl-3,4,7,8,9,10-hexahydropyrido [3',4':3,4]pyrazolo[1,5-a]pyrazin-2(1H)-yl)pyrazolo[1,5-a]pyridine-7-carbonitrile]: the results for the IC50 on human TLR7 (setting [1]) and at human TLR8 (setting [2]) were over 0.05 µM and under 0.1 µM, respectively.
Consider `C[C@H]1NCCc2c1nn1c2CN(c2ccc(C#N)n3ncc(F)c23)C[C@H]1CF` [Example I-87, 3-Fluoro-4-((4S,7R)-4-(fluoromethyl)-7-methyl-3,4,7,8,9,10-hexahydropyrido [3',4':3,4]pyrazolo[1,5-a]pyrazin-2(1H)-yl)pyrazolo[1,5-a]pyridine-7-carbonitrile], for which the values for the IC50 at human TLR7 (setting [1]) and at human TLR8 (setting [2]) were under 0.05 µM and under 0.1 µM, respectively.
On to `C[C@@H]1CN(c2ccc(C#N)n3ncc(F)c23)Cc2c3c(nn21)CNC(c1cnn(C)c1)C3` (stereo partly drawn) [Example I-91, 3-Fluoro-4-((4R)-4-methyl-9-(1-methyl-1H-pyrazol-4-yl)-3,4,7,8,9,10-hexahydropyrido[3',4':3,4]pyrazolo[1,5-a]pyrazin-2(1H)-yl)pyrazolo[1,5-a]pyridine-7-carbonitrile], for which the IC50 is under 0.05 µM at human TLR7 (setting [1]) and under 0.1 µM on human TLR8 (setting [2]).
In the case of `C[C@@H]1CN(c2ccc(C#N)n3ncc(F)c23)Cc2c3c(nn21)CN1C(=O)OC[C@@H]1C3` [Example I-95, 3-Fluoro-4-((8R,12aS)-8-methyl-3-oxo-1,8,9,11,12,12a-hexahydro-3H,5H,10H-oxazolyl [3 ‴,4 ':1'6']pyridine and [3',4':3,4]pyrazole [1,5-a]pyrazine-10-yl) pyrazole [1,5-a]pyridine-7-nitrile], the IC50 on human TLR7 (HEK-Blue hTLR7 IC50 (µM)) was over 0.05 µM; at human TLR8 (HEK-Blue hTLR8 IC50 (µM)), over 0.1 µM.
`C[C@@H]1CN(c2ccc(C#N)n3ncc(F)c23)Cc2c3c(nn21)CN(CC(N)=O)[C@@H](C)C3` [Example I-99, 2-((4R,9S)-2-(7-cyanide-3-fluoropyridox and [1,5-a]pyridox-4-base)-4,9-dimethyl-1,2,3,4,9, 10-hydropyridox [3', 4': 3, 4]pyridoz and [1, 5]pyridoxine-8 (7H)-Base) acetylamine]: the IC50 was under 0.05 µM on human TLR7 (setting [1]) and over 0.1 µM on human TLR8 (setting [2]).
For the molecule `C[C@@H]1CN(c2ccc(C#N)n3ncc(F)c23)Cc2c3c(nn21)CN(CC(=O)N[C@H]1CNC[C@H]1F)[C@@H](C)C3` [Example I-106, 2-((4R,9S)-2-(7-cyano-3-fluoropyrazolo[1,5-a]pyridin-4-yl)-4,9-dimethyl-1,2,3,4,9,10-hexahydropyrido[3',4':3,4]pyrazolo[1,5-a]pyrazin-8(7H)-yl)-N-((3S,4R)-4-fluoropyrrolidin-3-yl)acetamide], the values for the IC50 at human TLR7 (setting [1]) and at human TLR8 (setting [2]) were under 0.05 µM and under 0.1 µM, respectively.
Regarding `C[C@@H]1CN(c2ccc(C#N)n3ncc(F)c23)Cc2c3c(nn21)CN(C1CC(O)C1)[C@@H](C)C3` (stereo partly drawn) [Example I-111, 3-Fluoro-4-((4R, 9S)-8-(3-hydroxycyclobutyl)-4,9-dimethyl-3,4,7,8,9, 10-hexahydropyridine [3 ', 4 ': 3, 4]pyrazole [1,5-a]pyrazine-2 (1 H) -yl) pyrazole [1,5-a] pyridine-7-nitrile], the IC50 was under 0.05 µM on human TLR7 (HEK-Blue hTLR7 IC50 (µM)) and under 0.1 µM on human TLR8 (HEK-Blue hTLR8 IC50 (µM)).
As to `C[C@@H]1CN(c2ccc(C#N)n3ncc(F)c23)Cc2c3c(nn21)CN(CC(C)(C)O)[C@@H](C)C3` [Example I-117, 3-Fluoro-4-((4R,9S)-8-(2-hydroxy-2-methylpropyl)-4,9-dimethyl-3,4,7,8,9,10-hexahydropyrido[3',4':3,4]pyrazolo[1,5-a]pyrazin-2(1H)-yl)pyrazolo[1,5-a]pyridine-7-carbonitrile], the results for the IC50 on human TLR7 (setting [1]) and on human TLR8 (setting [2]) were under 0.05 µM and under 0.1 µM, respectively.
`C[C@@H]1CN(c2ccc(C#N)n3ncc(F)c23)Cc2c3c(nn21)CN(S(=O)(=O)CCN(C)C)[C@@H](C)C3` [Example I-118]: the IC50 is under 0.05 µM on human TLR7 (setting [1]) and under 0.1 µM at human TLR8 (setting [2]).
Consider `COCCN1Cc2nn3c(c2C[C@@H]1C)CN(c1ccc(C#N)n2ncc(F)c12)C[C@H]3C` [Example I-125, 3-Fluoro-4-((4R,9S)-8-(2-methoxyethyl)-4,9-dimethyl-3,4,7,8,9,10-hexahydropyridine [3 ', 4 ': 3, 4]pyrazole [1,5-a]pyrazine-2(1H)-yl) pyrazole[1,5-a] pyridine-7-caronitrile], for which the IC50 on human TLR7 (read-out: HEK-Blue hTLR7 IC50) was under 0.05 µM; at human TLR8 (read-out: HEK-Blue hTLR8 IC50), under 0.1 µM.
As for `C[C@@H]1CN(c2ccc(C#N)n3ncc(F)c23)Cc2c3c(nn21)CN(CCC#N)[C@@H](C)C3` [Example I-129, 4-((4R,9S)-8-(2-cyanoethyl)-4,9-dimethyl-3,4,7,8,9,10-hexahydropyridine[3',4':3,4]pyrazole[1,5-a]pyrazine-2 (1 H)-yl)-3-fluoropyrazole [1,5-a] pyridine-7-nitrile], the IC50 was under 0.05 µM against human TLR7 (HEK-Blue hTLR7 IC50 (µM)) and under 0.1 µM against human TLR8 (HEK-Blue hTLR8 IC50 (µM)).
Consider `C[C@@H]1CN(c2ccc(C#N)c3ncccc23)Cc2c3c(nn21)CN[C@@H](C)C3` [Example I-132, 5-((4R,9S)-4,9-dimethyl-3,4,7,8,9,10-hexahydropyrido[3',4':3,4]pyrazolo[1,5-a]pyrazin-2(1H)-yl)quinoline-8-carbonitrile], for which the IC50 at human TLR7 (setting [1]) is under 0.05 µM; on human TLR8 (setting [2]) it was under 0.1 µM.
With `C[C@@H]1CN(c2ccc(C#N)n3ncc(F)c23)Cc2c3c(nn21)CN(Cc1ccn[nH]1)[C@@H](C)C3` [Example I-134, 4-((4R,9S)-8-((1H-pyrazol-5-yl)methyl)-4,9-dimethyl-3,4,7,8,9,10-hexahydropyrido[3',4':3,4]pyrazolo[1,5-a]pyrazin-2(1H)-yl)-3-fluoropyrazolo[1,5-a]pyridine-7-carbonitrile], the figures for the IC50 on human TLR7 (read-out: HEK-Blue hTLR7 IC50) and on human TLR8 (read-out: HEK-Blue hTLR8 IC50) were under 0.05 µM and under 0.1 µM, respectively.
Take `C[C@@H]1CN(c2ccc(C#N)n3ncc(F)c23)Cc2c3c(nn21)CN(C1CC2(COC2)C1)[C@@H](C)C3` [Example I-135]: the IC50 against human TLR7 (HEK-Blue hTLR7 IC50 (µM)) is under 0.05 µM; on human TLR8 (HEK-Blue hTLR8 IC50 (µM)) it was under 0.1 µM.
Regarding `C[C@@H]1CN(c2ccc(C#N)n3ncc(F)c23)Cc2c3c(nn21)CN(CC(=O)N1CCN(C2CC2)CC1)[C@@H](C)C3` [Example I-136, 4-((4R,9S)-8-(2-(4-cyclopropylpiperazin-1-yl)-2-oxoethyl)-4,9-dimethyl-3,4,7,8,9,10-hexahydropyrido[3',4':3,4]pyrazolo[1,5-a]pyrazin-2(1H)-yl)-3-fluoropyrazolo[1,5-a]pyridine-7-carbonitrile], the IC50 at human TLR7 (setting [1]) is under 0.05 µM; on human TLR8 (setting [2]), under 0.1 µM.
